Experimental data published in patent US20210255193A1, “LYSINE REACTIVE PROBES AND USES THEREOF” (The Scripps Research Institute, priority 2017, published 2021).

Key:
Test in all cases: competitive isoTOP-ABPP
Type in all cases: binding
[1] = molecular target: T1, MTOR Serine/threonine-protein kinase mTOR (Homo sapiens, UniProt P42345); conditions: for R value (DMSO/fragment) for probe 1 labeling: P42345_K2066; for R value (DMSO/fragment) for probe 1 labeling / isoTOP-ABPP reactivity ratio at lysine P42345_K2066: 231 sol
T1 construct: isoTOP-ABPP experiments performed in cell lysates (in vitro); endogenous in cells; host or cells: soluble proteome of human cancer cell lines (MDA-MB-231; Ramos and Jurkat also prepared)
Procedure, shortened: (§1)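 Cell lysate (0.5 ml) was pre-treated with fragment, 50 μM for activated esters or 100 μM for guanidinylating agents, versus DMSO, then labeled 1 h at ambient temperature with 0.1 mM STP-alkyne. Light/heavy TEV tags attached by CuAAC; R = DMSO/compound MS1 peak-area ratio, median per lysine.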

[2] = molecular target: T2, CNOT4 CCR4-NOT transcription complex subunit 4 (Homo sapiens, UniProt O95628); conditions: 50 uM, in vitro; for R value (DMSO/fragment) for probe 1 labeling: O95628_K134; for R value (DMSO/fragment) for probe 1 labeling / isoTOP-ABPP reactivity ratio at lysine O95628_K134: 231 sol; for isoTOP-ABPP ratio (R) at liganded lysine O95628_K134: sol, 231
T2 construct: isoTOP-ABPP experiments performed in cell lysates (in vitro); endogenous in cells; host or cells: MDA-MB-231 soluble lysate
T2 sequence (O95628 1-575): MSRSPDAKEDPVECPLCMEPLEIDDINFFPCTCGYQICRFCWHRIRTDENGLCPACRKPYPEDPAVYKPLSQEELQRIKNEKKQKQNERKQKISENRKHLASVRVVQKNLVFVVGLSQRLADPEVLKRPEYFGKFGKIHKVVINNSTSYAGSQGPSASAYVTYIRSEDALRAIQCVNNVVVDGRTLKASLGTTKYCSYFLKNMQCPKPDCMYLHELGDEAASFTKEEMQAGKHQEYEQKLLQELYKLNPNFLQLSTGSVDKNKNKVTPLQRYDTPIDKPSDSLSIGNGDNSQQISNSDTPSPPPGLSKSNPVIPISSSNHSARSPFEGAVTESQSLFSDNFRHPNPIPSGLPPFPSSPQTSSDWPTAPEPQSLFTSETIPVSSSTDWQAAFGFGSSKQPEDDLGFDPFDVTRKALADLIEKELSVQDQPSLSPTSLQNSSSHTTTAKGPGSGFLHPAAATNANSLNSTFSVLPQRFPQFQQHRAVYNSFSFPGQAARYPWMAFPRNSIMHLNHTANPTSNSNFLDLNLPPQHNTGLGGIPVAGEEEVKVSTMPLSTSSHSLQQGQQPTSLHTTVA
Procedure, shortened: as §1

[3] = molecular target: T3, PFKM 6-phosphofructokinase, muscle type (Homo sapiens, UniProt P08237); conditions: for R value (DMSO/fragment) for probe 1 labeling: P08237_K678; for R value (DMSO/fragment) for probe 1 labeling / isoTOP-ABPP reactivity ratio at lysine P08237_K678 / isoTOP-ABPP ratio (R) at liganded lysine P08237_K678: 50 uM, in vitro; for R value (DMSO/fragment) for probe 1 labeling / isoTOP-ABPP reactivity ratio at lysine P08237_K678: 231 sol; for isoTOP-ABPP ratio (R) at liganded lysine P08237_K678: sol, 231
T3 construct: isoTOP-ABPP experiments performed in cell lysates (in vitro); endogenous in cells; host or cells: MDA-MB-231 soluble lysate
T3 sequence (P08237 1-780): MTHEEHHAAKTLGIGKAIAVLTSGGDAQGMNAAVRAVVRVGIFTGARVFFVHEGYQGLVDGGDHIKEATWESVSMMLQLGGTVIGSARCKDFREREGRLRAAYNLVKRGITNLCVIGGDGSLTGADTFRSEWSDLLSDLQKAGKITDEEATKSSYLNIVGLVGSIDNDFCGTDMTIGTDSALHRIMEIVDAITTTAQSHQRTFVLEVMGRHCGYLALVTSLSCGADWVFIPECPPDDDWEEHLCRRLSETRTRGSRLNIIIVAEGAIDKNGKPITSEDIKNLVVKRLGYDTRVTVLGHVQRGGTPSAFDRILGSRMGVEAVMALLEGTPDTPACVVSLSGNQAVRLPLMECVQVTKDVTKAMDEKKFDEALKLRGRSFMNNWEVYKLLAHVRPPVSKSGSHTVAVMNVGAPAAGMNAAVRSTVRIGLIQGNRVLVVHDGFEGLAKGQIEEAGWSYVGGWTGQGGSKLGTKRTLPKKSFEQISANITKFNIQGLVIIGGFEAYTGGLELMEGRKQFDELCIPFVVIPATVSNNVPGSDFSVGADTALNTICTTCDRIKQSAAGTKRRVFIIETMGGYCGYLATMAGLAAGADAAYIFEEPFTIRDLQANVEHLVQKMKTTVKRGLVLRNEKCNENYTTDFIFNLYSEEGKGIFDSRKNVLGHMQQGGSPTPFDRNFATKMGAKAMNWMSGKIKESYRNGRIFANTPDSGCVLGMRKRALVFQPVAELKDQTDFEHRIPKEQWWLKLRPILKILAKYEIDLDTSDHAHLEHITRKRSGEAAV
Procedure, shortened: as §1

| Structure (SMILES) | R value (DMSO/fragment) for probe 1 labeling ([1]; 50 uM, in vitro) | R value (DMSO/fragment) for probe 1 labeling [2] | R value (DMSO/fragment) for probe 1 labeling [3] | isoTOP-ABPP ratio (R) at liganded lysine P08237_K678 [3] | further results |
| --- | --- | --- | --- | --- | --- |
| O=C(Oc1c(F)c(F)c(F)c(F)c1F)c1cc(C(F)(F)F)cc(C(F)(F)F)c1 [fragment 21, Pentafluorophenyl 3,5-bis(trifluoromethyl)benzoate] | 0.7 | 1.2 | 0.9 | – | – |
| COc1cc(CCC(=O)Oc2c(F)c(F)c(F)c(F)c2F)cc(OC)c1OC [fragment 23, Pentafluorophenyl 3-(3,4,5-trimethoxyphenyl)propanoate] | 1.1 | 1.2 | 1.0 | – | – |
| O=C(Oc1c(F)c(F)c(F)c(F)c1F)C1CCN(C(=O)OCc2ccccc2)CC1 [fragment 24, 1-Benzyl 4-(pentafluorophenyl) piperidine-1,4-dicarboxylate] | – | – | – | – | isoTOP-ABPP reactivity ratio at lysine P42345_K2066 ([1]; 50 uM, in vitro): 1.0; isoTOP-ABPP reactivity ratio at lysine O95628_K134 [2]: 1.0; isoTOP-ABPP reactivity ratio at lysine P08237_K678 [3]: 1.1 |
| O=C(Oc1c(F)c(F)c(F)c(F)c1F)c1ccc2ccccc2n1 [fragment 25, Pentafluorophenyl quinoline-2-carboxylate] | – | – | – | – | isoTOP-ABPP reactivity ratio at lysine O95628_K134 [2]: 1.8; isoTOP-ABPP reactivity ratio at lysine P08237_K678 [3]: 1.3 |
| O=C(CCc1coc2cc(F)ccc2c1=O)Oc1c(F)c(F)c(F)c(F)c1F [fragment 26, Pentafluorophenyl 3-(7-fluoro-4-oxo-4H-chromen-3-yl)propanoate] | – | – | – | – | isoTOP-ABPP reactivity ratio at lysine P42345_K2066 ([1]; 50 uM, in vitro): 2.8; isoTOP-ABPP reactivity ratio at lysine O95628_K134 [2]: 1.1; isoTOP-ABPP reactivity ratio at lysine P08237_K678 [3]: 1.4 |
| O=C(CCc1coc2cc(F)ccc2c1=O)Oc1ccc([N+](=O)[O-])cc1[N+](=O)[O-] [fragment 36, 2,4-Dinitrophenyl 3-(7-fluoro-4-oxo-4H-chromen-3-yl)propanoate] | – | – | – | 5.3 | isoTOP-ABPP ratio (R) at liganded lysine P42345_K2066 ([1]; 50 uM, in vitro, sol, 231): 3.0 |
| O=C(Oc1ccc([N+](=O)[O-])cc1[N+](=O)[O-])c1ccc(Oc2ccccc2)cc1 [fragment 39, 2,4-Dinitrophenyl 4-phenoxybenzoate] | – | – | – | 1.0 | isoTOP-ABPP ratio (R) at liganded lysine O95628_K134 [2]: 1.0 |
| CC(C)(C)OC(=O)NCCCC(=O)Oc1ccc([N+](=O)[O-])cc1[N+](=O)[O-] [fragment 41, 2,4-Dinitrophenyl 4-((tert-butoxycarbonyl)amino)butanoate] | – | – | – | 2.0 | isoTOP-ABPP ratio (R) at liganded lysine O95628_K134 [2]: 1.3 |
| O=C(Oc1ccc([N+](=O)[O-])cc1[N+](=O)[O-])C(c1ccccc1)(c1ccccc1)c1ccccc1 [fragment 42, 2,4-Dinitrophenyl 2,2,2-triphenylacetate] | – | – | – | 0.9 | isoTOP-ABPP ratio (R) at liganded lysine O95628_K134 [2]: 1.0 |
| O=C(Oc1c(F)c(F)cc(F)c1F)c1cc(C(F)(F)F)cc(C(F)(F)F)c1 [fragment 48, 2,3,5,6-Tetrafluorophenyl 3,5-bis(trifluoromethyl)benzoate] | – | – | – | – | isoTOP-ABPP ratio, lysine P42345_K2066 ([1]; 50 uM_231_sol_in vitro): 1.0; isoTOP-ABPP ratio, lysine P08237_K678 ([3]; 50 uM_231_sol_in vitro): 0.9 |

Further lines, with some results ahead:

| R value (DMSO/fragment) for probe 1 labeling ([1]; 50 uM, in vitro) | R value (DMSO/fragment) for probe 1 labeling [2] | R value (DMSO/fragment) for probe 1 labeling [3] | Structure (SMILES) | isoTOP-ABPP ratio (R) at liganded lysine P08237_K678 [3] | further results |
| --- | --- | --- | --- | --- | --- |
| 0.9 | 1.1 | 1.0 | O=C(CCc1cn(-c2ccccc2)nc1-c1ccccc1)Oc1c(F)c(F)c(F)c(F)c1F [fragment 19, Pentafluorophenyl 3-(1,3-diphenyl-1H-pyrazol-4-yl)propanoate] | – | – |
| 1.0 | 0.9 | 1.4 | O=C(Oc1c(F)c(F)c(F)c(F)c1F)C(c1ccccc1)c1ccccc1 [fragment 20, Pentafluorophenyl 2,2-diphenylacetate] | – | – |
| 2.8 | 1.4 | 1.1 | Cn1cc(CC(=O)Oc2c(F)c(F)c(F)c(F)c2F)c2ccccc21 [fragment 22, Pentafluorophenyl 2-(1-methyl-1H-indol-3-yl)acetate] | – | – |
